Source: patent US10167262B2, “Herbicidal substituted 3-arylpyrazoles” (FMC CORPORATION, priority 2014, dated 2019)

Test system: barnyardgrass (Echinochloa crus-galli)
Assay: Test A pre-/postemergence greenhouse herbicide test, visual injury rating 0-100
Assay type: in vivo
Conditions: Postemergence, 125 g ai/ha
Outline: (§1)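 Seeds planted in loam-sand blend; preemergence directed soil spray and postemergence spray at 2–10 cm, one- to two-leaf stage, compounds formulated in non-phytotoxic solvent with surfactant. After about 10 days in greenhouse, injury rated visually against untreated controls, 0 (no effect) to 100 (complete control).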

| SMILES | Plant response rating (0 to 100 scale), Barnyardgrass |
| --- | --- |
| O=C(c1ccccc1)c1cn(CC2CC2)nc1-c1cc(Cl)cc(Cl)c1 [Compound 41] | 0 |

Same assay, conditions: Postemergence, 500 g ai/ha

| SMILES | Plant response rating (0 to 100 scale), Barnyardgrass |
| --- | --- |
| O=C(c1ccccc1)c1cn(CC2CC2)nc1-c1cc(Cl)cc(Cl)c1 [Compound 41] | 0 |

Same assay, conditions: Preemergence, 125 g ai/ha

| SMILES | Barnyardgrass plant response rating (0 = no effect, 100 = complete control) |
| --- | --- |
| O=C(c1ccccc1)c1cn(CC2CC2)nc1-c1cc(Cl)cc(Cl)c1 [Compound 41] | 0 |

Same assay, conditions: Preemergence, 500 g ai/ha

| SMILES | Plant response rating (0 to 100 scale), Barnyardgrass |
| --- | --- |
| O=C(c1ccccc1)c1cn(CC2CC2)nc1-c1cc(Cl)cc(Cl)c1 [Compound 41] | 0 |

Test system: pigweed (Amaranthus retroflexus)
Assay: as above
Assay type: in vivo
Conditions: Postemergence, 125 g ai/ha
Outline: as §1

| SMILES | Plant response rating (0 to 100 scale), Pigweed |
| --- | --- |
| O=C(c1ccccc1)c1cn(CC2CC2)nc1-c1cc(Cl)cc(Cl)c1 [Compound 41] | 30 |

Same assay, conditions: Postemergence, 500 g ai/ha

| SMILES | Plant response rating (0 to 100 scale), Pigweed |
| --- | --- |
| O=C(c1ccccc1)c1cn(CC2CC2)nc1-c1cc(Cl)cc(Cl)c1 [Compound 41] | 60 |

Same assay, conditions: Preemergence, 125 g ai/ha

| SMILES | Pigweed plant response rating (0 = no effect, 100 = complete control) |
| --- | --- |
| O=C(c1ccccc1)c1cn(CC2CC2)nc1-c1cc(Cl)cc(Cl)c1 [Compound 41] | 0 |

Same assay, conditions: Preemergence, 500 g ai/ha

| SMILES | Plant response rating (0 to 100 scale), Pigweed |
| --- | --- |
| O=C(c1ccccc1)c1cn(CC2CC2)nc1-c1cc(Cl)cc(Cl)c1 [Compound 41] | 60 |

Test system: wheat (Triticum aestivum)
Assay: as above
Assay type: in vivo
Conditions: Postemergence, 125 g ai/ha
Outline: as §1

| SMILES | Plant response rating (0 to 100 scale), Wheat |
| --- | --- |
| O=C(c1ccccc1)c1cn(CC2CC2)nc1-c1cc(Cl)cc(Cl)c1 [Compound 41] | 0 |

Same assay, conditions: Postemergence, 500 g ai/ha

| SMILES | Plant response rating (0 to 100 scale), Wheat |
| --- | --- |
| O=C(c1ccccc1)c1cn(CC2CC2)nc1-c1cc(Cl)cc(Cl)c1 [Compound 41] | 0 |

Same assay, conditions: Preemergence, 125 g ai/ha

| SMILES | Wheat plant response rating (0 = no effect, 100 = complete control) |
| --- | --- |
| O=C(c1ccccc1)c1cn(CC2CC2)nc1-c1cc(Cl)cc(Cl)c1 [Compound 41] | 0 |

Same assay, conditions: Preemergence, 500 g ai/ha

| SMILES | Plant response rating (0 to 100 scale), Wheat |
| --- | --- |
| O=C(c1ccccc1)c1cn(CC2CC2)nc1-c1cc(Cl)cc(Cl)c1 [Compound 41] | 0 |

Test system: corn (Zea mays)
Assay: as above
Assay type: in vivo
Conditions: Postemergence, 125 g ai/ha
Outline: as §1

| SMILES | Plant response rating (0 to 100 scale), Corn |
| --- | --- |
| O=C(c1ccccc1)c1cn(CC2CC2)nc1-c1cc(Cl)cc(Cl)c1 [Compound 41] | 0 |

Same assay, conditions: Postemergence, 500 g ai/ha

| SMILES | Plant response rating (0 to 100 scale), Corn |
| --- | --- |
| O=C(c1ccccc1)c1cn(CC2CC2)nc1-c1cc(Cl)cc(Cl)c1 [Compound 41] | 0 |

Same assay, conditions: Preemergence, 125 g ai/ha

| SMILES | Corn plant response rating (0 = no effect, 100 = complete control) |
| --- | --- |
| O=C(c1ccccc1)c1cn(CC2CC2)nc1-c1cc(Cl)cc(Cl)c1 [Compound 41] | 0 |

Same assay, conditions: Preemergence, 500 g ai/ha

| SMILES | Plant response rating (0 to 100 scale), Corn |
| --- | --- |
| O=C(c1ccccc1)c1cn(CC2CC2)nc1-c1cc(Cl)cc(Cl)c1 [Compound 41] | 0 |

Test system: morningglory (Ipomoea spp.)
Assay: as above
Assay type: in vivo
Conditions: Postemergence, 125 g ai/ha
Outline: as §1

| SMILES | Plant response rating (0 to 100 scale), Morningglory |
| --- | --- |
| O=C(c1ccccc1)c1cn(CC2CC2)nc1-c1cc(Cl)cc(Cl)c1 [Compound 41] | 0 |

Same assay, conditions: Postemergence, 500 g ai/ha

| SMILES | Plant response rating (0 to 100 scale), Morningglory |
| --- | --- |
| O=C(c1ccccc1)c1cn(CC2CC2)nc1-c1cc(Cl)cc(Cl)c1 [Compound 41] | 0 |

Same assay, conditions: Preemergence, 125 g ai/ha

| SMILES | Morningglory plant response rating (0 = no effect, 100 = complete control) |
| --- | --- |
| O=C(c1ccccc1)c1cn(CC2CC2)nc1-c1cc(Cl)cc(Cl)c1 [Compound 41] | 0 |

Same assay, conditions: Preemergence, 500 g ai/ha

| SMILES | Plant response rating (0 to 100 scale), Morningglory |
| --- | --- |
| O=C(c1ccccc1)c1cn(CC2CC2)nc1-c1cc(Cl)cc(Cl)c1 [Compound 41] | 0 |

Test system: velvetleaf (Abutilon theophrasti)
Assay: as above
Assay type: in vivo
Conditions: Postemergence, 125 g ai/ha
Outline: as §1

| SMILES | Plant response rating (0 to 100 scale), Velvetleaf |
| --- | --- |
| O=C(c1ccccc1)c1cn(CC2CC2)nc1-c1cc(Cl)cc(Cl)c1 [Compound 41] | 40 |

Same assay, conditions: Postemergence, 500 g ai/ha

| SMILES | Plant response rating (0 to 100 scale), Velvetleaf |
| --- | --- |
| O=C(c1ccccc1)c1cn(CC2CC2)nc1-c1cc(Cl)cc(Cl)c1 [Compound 41] | 80 |

Same assay, conditions: Preemergence, 125 g ai/ha

| SMILES | Velvetleaf plant response rating (0 = no effect, 100 = complete control) |
| --- | --- |
| O=C(c1ccccc1)c1cn(CC2CC2)nc1-c1cc(Cl)cc(Cl)c1 [Compound 41] | 0 |

Same assay, conditions: Preemergence, 500 g ai/ha

| SMILES | Plant response rating (0 to 100 scale), Velvetleaf |
| --- | --- |
| O=C(c1ccccc1)c1cn(CC2CC2)nc1-c1cc(Cl)cc(Cl)c1 [Compound 41] | 60 |

Test system: giant foxtail (Setaria faberii)
Assay: as above
Assay type: in vivo
Conditions: Postemergence, 125 g ai/ha
Outline: as §1

| SMILES | Plant response rating (0 to 100 scale), Foxtail, Giant |
| --- | --- |
| O=C(c1ccccc1)c1cn(CC2CC2)nc1-c1cc(Cl)cc(Cl)c1 [Compound 41] | 0 |

Same assay, conditions: Postemergence, 500 g ai/ha

| SMILES | Plant response rating (0 to 100 scale), Foxtail, Giant |
| --- | --- |
| O=C(c1ccccc1)c1cn(CC2CC2)nc1-c1cc(Cl)cc(Cl)c1 [Compound 41] | 0 |

Same assay, conditions: Preemergence, 125 g ai/ha

| SMILES | Foxtail, Giant plant response rating (0 = no effect, 100 = complete control) |
| --- | --- |
| O=C(c1ccccc1)c1cn(CC2CC2)nc1-c1cc(Cl)cc(Cl)c1 [Compound 41] | 0 |

Same assay, conditions: Preemergence, 500 g ai/ha

| SMILES | Plant response rating (0 to 100 scale), Foxtail, Giant |
| --- | --- |
| O=C(c1ccccc1)c1cn(CC2CC2)nc1-c1cc(Cl)cc(Cl)c1 [Compound 41] | 0 |

Test system: large (Lg) crabgrass (Digitaria sanguinalis)
Assay: as above
Assay type: in vivo
Conditions: Postemergence, 125 g ai/ha
Outline: as §1

| SMILES | Plant response rating (0 to 100 scale), Crabgrass, Large |
| --- | --- |
| O=C(c1ccccc1)c1cn(CC2CC2)nc1-c1cc(Cl)cc(Cl)c1 [Compound 41] | 0 |

Same assay, conditions: Postemergence, 500 g ai/ha

| SMILES | Plant response rating (0 to 100 scale), Crabgrass, Large |
| --- | --- |
| O=C(c1ccccc1)c1cn(CC2CC2)nc1-c1cc(Cl)cc(Cl)c1 [Compound 41] | 0 |

Same assay, conditions: Preemergence, 125 g ai/ha

| SMILES | Crabgrass, Large plant response rating (0 = no effect, 100 = complete control) |
| --- | --- |
| O=C(c1ccccc1)c1cn(CC2CC2)nc1-c1cc(Cl)cc(Cl)c1 [Compound 41] | 0 |

Same assay, conditions: Preemergence, 500 g ai/ha

| SMILES | Plant response rating (0 to 100 scale), Crabgrass, Large |
| --- | --- |
| O=C(c1ccccc1)c1cn(CC2CC2)nc1-c1cc(Cl)cc(Cl)c1 [Compound 41] | 0 |

Test system: sedge, umbrella (small-flower umbrella sedge, Cyperus difformis)
Assay: Test B flooded paddy test, plant response rating 0-100
Assay type: in vivo
Conditions: Flood, 250 g ai/ha; scale 0 to 100 (0 no effect, 100 complete control); 13 to 15 days
Source text: (§2) At time of treatment, test pots were flooded to 3 cm above the soil surface, treated by application of test compounds directly to the paddy water, and then maintained at that water depth for the duration of the test. Treated plants and controls were maintained in a greenhouse for 13 to 15 days, after which time all species were compared to controls and visually evaluated. […] A dash (-) response means no test result.

| SMILES | Plant response rating, Sedge, Umbrella |
| --- | --- |
| O=C(c1ccccc1)c1cn(CC2CC2)nc1-c1cc(Cl)cc(Cl)c1 [Compound 41] | 30 |

Test system: barnyardgrass (Echinochloa crus-galli)
Assay: as above
Assay type: in vivo
Conditions: Flood, 250 g ai/ha; scale 0 to 100 (0 no effect, 100 complete control); 13 to 15 days
Source text: as §2

| SMILES | Plant response rating, Barnyardgrass |
| --- | --- |
| O=C(c1ccccc1)c1cn(CC2CC2)nc1-c1cc(Cl)cc(Cl)c1 [Compound 41] | 0 |

Test system: ducksalad (Heteranthera limosa)
Assay: as above
Assay type: in vivo
Conditions: Flood, 250 g ai/ha; scale 0 to 100 (0 no effect, 100 complete control); 13 to 15 days
Source text: as §2

| SMILES | Plant response rating, Ducksalad |
| --- | --- |
| O=C(c1ccccc1)c1cn(CC2CC2)nc1-c1cc(Cl)cc(Cl)c1 [Compound 41] | 0 |

Test system: rice (Oryza sativa)
Assay: as above
Assay type: in vivo
Conditions: Flood, 250 g ai/ha; scale 0 to 100 (0 no effect, 100 complete control); 13 to 15 days
Source text: as §2

| SMILES | Plant response rating, Rice |
| --- | --- |
| O=C(c1ccccc1)c1cn(CC2CC2)nc1-c1cc(Cl)cc(Cl)c1 [Compound 41] | 0 |
